molecular target: T1, Rac1 (Homo sapiens, UniProt P63000); experiment: Rac Activation AlphaScreen Assay (Rac1 AS); format: biochemical; details: Rac1 AS assay, dose leading to 50% disruption of complex; read-out: IC50
T1 construct: His (N)
Method: The IC50 values reported in Tables 1-6 were obtained from the Rae Activation AlphaScreen Assay (Rac1 AS) assay described in subsection 2 under the section entitled “In Vitro Assays”. “†” represents an IC50 of greater than 100 uM; “††” represents an IC50 of greater than 10 uM and less than 50 uM; and “†††” represents an IC50 of less than 10 uM. “POC” means percent of control. […] Lower POC values reflect greater inhibition. “NT” means not tested.
2. Rac Activation AlphaScreen Assay (Rac1 AS)
AlphaScreen® assays were performed in 96-well microplates in a final reaction volume of 60 μL. Recombinant His-Rac1, recombinant GST-PBD (PAK Binding Domain), donor and acceptor beads (PerkinElmer), and inhibitors were incubated in exchange buffer (20 mM Tris pH 7.5, 50 mM NaCl, 1 mM MgCl2, 1 mM EDTA, 500 nM GTPyS (guanosine 5′-[Y-thio]triphosphate)) at 37° C. Readings were performed on a Tecan M1000 pro microplate reader after 1 hour. Data was analyzed using the GraphPad Prism software (GraphPad Software, Inc.), and IC50 (dose leading to 50% disruption of complex) was calculated from the dose-response curves.

**Q.** For `O=C(Cc1ccc(Cl)cc1)Nc1ccc(-c2ccc3nnc(-c4ccncc4)n3n2)cc1` [Compound 7], which IC50 is on record?
**A.** > 100 µM

**Q.** `O=C(Cc1cccc(F)c1)Nc1ccc(-c2ccc3nnc(-c4ccncc4)n3n2)cc1` [Compound 8] was tested. Which IC50 did it give?
**A.** > 100 µM

**Q.** With `Cc1ccc(CC(=O)Nc2ccc(-c3ccc4nnc(-c5ccncc5)n4n3)cc2)cc1C` [Compound 9] as the molecule, how does the IC50 read?
**A.** 10 to 50 µM

**Q.** `O=C(Cc1cccc(Cl)c1)Nc1ccc(-c2ccc3nnc(-c4ccncc4)n3n2)cc1` [Compound 10] was tested. Which IC50 did it give?
**A.** < 10 µM

**Q.** Which IC50 does the source give for `Cc1cc(C)cc(CC(=O)Nc2ccc(-c3ccc4nnc(-c5ccncc5)n4n3)cc2)c1` [Compound 11] here?
**A.** 10 to 50 µM

**Q.** With `O=C(Cc1ccc(F)cc1)Nc1ccc(-c2ccc3nnc(-c4ccncc4)n3n2)cc1` [Compound 12] as the molecule, how does the IC50 read?
**A.** < 10 µM

**Q.** How did the IC50 turn out when `Cc1ccccc1CC(=O)Nc1ccc(-c2ccc3nnc(-c4ccncc4)n3n2)cc1` [Compound 13] was run?
**A.** 10 to 50 µM

**Q.** With `O=C(Cc1cccc2ccccc12)Nc1ccc(-c2ccc3nnc(-c4ccncc4)n3n2)cc1` [Compound 15] as the molecule, how does the IC50 read?
**A.** < 10 µM

**Q.** Which IC50 does the source give for `O=C(Cc1ccc2ccccc2c1)Nc1ccc(-c2ccc3nnc(-c4ccncc4)n3n2)cc1` [Compound 16] here?
**A.** 10 to 50 µM

**Q.** How did the IC50 turn out when `O=C(Cc1cccc([N+](=O)[O-])c1)Nc1ccc(-c2ccc3nnc(-c4ccncc4)n3n2)cc1` [Compound 17] was run?
**A.** 10 to 50 µM

**Q.** For `O=C(Cc1cccs1)Nc1ccc(-c2ccc3nnc(-c4cccnc4)n3n2)cc1` [Compound 18], which IC50 is on record?
**A.** 10 to 50 µM

**Q.** Which IC50 does the source give for `O=C(Cc1cccc2ccccc12)Nc1ccc(-c2ccc3nnc(-c4ccccn4)n3n2)cc1` [Compound 19] here?
**A.** < 10 µM

**Q.** For `O=C(Cc1ccc2ccccc2n1)Nc1ccc(-c2ccc3nnc(-c4ccccn4)n3n2)cc1` [Compound 20], which IC50 is on record?
**A.** > 100 µM

**Q.** How did the IC50 turn out when `O=C(Cc1ccc(Cl)nc1)Nc1ccc(-c2ccc3nnc(-c4ccccn4)n3n2)cc1` [Compound 21] was run?
**A.** 10 to 50 µM

**Q.** Which IC50 does the source give for `O=C(Cc1cccnc1Cl)Nc1ccc(-c2ccc3nnc(-c4ccccn4)n3n2)cc1` [Compound 22] here?
**A.** < 10 µM

**Q.** For `O=C(Cc1cccc(F)c1)Nc1ccc(-c2ccc3nnc(-c4cccs4)n3n2)cc1` [Compound 24], which IC50 is on record?
**A.** < 10 µM

**Q.** How did the IC50 turn out when `COc1cccc(CC(=O)Nc2ccc(-c3ccc4nnc(-c5cccs5)n4n3)cc2)c1` [Compound 25] was run?
**A.** 10 to 50 µM

**Q.** How did the IC50 turn out when `O=C(Cc1ccc(F)cc1)Nc1ccc(-c2ccc3nnc(-c4cccs4)n3n2)cc1` [Compound 26] was run?
**A.** < 10 µM

**Q.** Which IC50 does the source give for `O=C(Cc1ccc(F)cc1F)Nc1ccc(-c2ccc3nnc(-c4cccs4)n3n2)cc1` [Compound 27] here?
**A.** < 10 µM

**Q.** With `O=C(Cc1ccccc1Cl)Nc1ccc(-c2ccc3nnc(-c4cccs4)n3n2)cc1` [Compound 28] as the molecule, how does the IC50 read?
**A.** < 10 µM

**Q.** For `O=C(Cc1ccccc1)Nc1ccc(-c2ccc3nnc(-c4ccccn4)n3n2)cc1` [Compound 30], which IC50 is on record?
**A.** < 10 µM

**Q.** How did the IC50 turn out when `Cc1nnc2ccc(-c3ccc(NC(=O)Cc4ccco4)cc3)nn12` [Compound 31] was run?
**A.** > 100 µM

**Q.** `O=S(=O)(Cc1ccccc1)Nc1ccc(-c2ccc3nnc(-c4ccccn4)n3n2)cc1` [Compound 33] was tested. Which IC50 did it give?
**A.** < 10 µM

**Q.** `O=C(Cc1ccccc1Cl)Nc1cccc(-c2ccc3nnc(-c4cccnc4)n3n2)c1` [Compound 44] was tested. Which IC50 did it give?
**A.** < 10 µM

**Q.** Which IC50 does the source give for `O=C(Cc1c[nH]c2ccccc12)Nc1cccc(-c2ccc3nnc(-c4cccnc4)n3n2)c1` [Compound 45] here?
**A.** < 10 µM

**Q.** How did the IC50 turn out when `COc1cccc(CC(=O)Nc2cccc(-c3ccc4nnc(-c5cccnc5)n4n3)c2)c1` [Compound 46] was run?
**A.** < 10 µM

**Q.** `O=C(Nc1cccc(-c2ccc3nnc(-c4cccnc4)n3n2)c1)c1ccc2ccccc2c1` [Compound 49] was tested. Which IC50 did it give?
**A.** 10 to 50 µM

**Q.** `O=C(Cc1cccs1)Nc1cccc(-c2ccc3nnc(-c4cccnc4)n3n2)c1` [Compound 51] was tested. Which IC50 did it give?
**A.** < 10 µM

**Q.** Which IC50 does the source give for `O=C(Cc1ccc(Cl)cc1)Nc1cccc(-c2ccc3nnc(-c4cccnc4)n3n2)c1` [Compound 52] here?
**A.** < 10 µM

**Q.** How did the IC50 turn out when `O=S(=O)(Cc1ccc(F)cc1F)Nc1cccc(-c2ccc3nnc(-c4cccnc4)n3n2)c1` [Compound 56] was run?
**A.** < 10 µM

**Q.** `O=S(=O)(Cc1ccc2ccccc2c1)Nc1cccc(-c2ccc3nnc(-c4cccnc4)n3n2)c1` [Compound 57] was tested. Which IC50 did it give?
**A.** < 10 µM

**Q.** With `CCc1ccc(CS(=O)(=O)Nc2cccc(-c3ccc4nnc(-c5cccnc5)n4n3)c2)s1` [Compound 59] as the molecule, how does the IC50 read?
**A.** < 10 µM

**Q.** With `Cc1ccc(CS(=O)(=O)Nc2cccc(-c3ccc4nnc(-c5cccnc5)n4n3)c2)s1` [Compound 60] as the molecule, how does the IC50 read?
**A.** < 10 µM

**Q.** With `O=S(=O)(Cc1ccccc1F)Nc1cccc(-c2ccc3nnc(-c4cccnc4)n3n2)c1` [Compound 62] as the molecule, how does the IC50 read?
**A.** < 10 µM

**Q.** Which IC50 does the source give for `O=S(=O)(Cc1cccc(F)c1)Nc1cccc(-c2ccc3nnc(-c4cccnc4)n3n2)c1` [Compound 63] here?
**A.** < 10 µM

**Q.** How did the IC50 turn out when `Cn1cc(CC(=O)Nc2cccc(-c3ccc4nnc(-c5cccnc5)n4n3)c2)c2ccccc21` [Compound 74] was run?
**A.** < 10 µM

**Q.** For `COc1cccc(C(=O)Nc2cccc(-c3ccc4nnc(-c5ccc(C)o5)n4n3)c2)c1` [Compound 79], which IC50 is on record?
**A.** < 10 µM

**Q.** `Cc1ccc(-c2nnc3ccc(-c4cccc(NC(=O)c5ccc(F)cc5)c4)nn23)o1` [Compound 80, 4-fluoro-N-(3-(3-(5-methylfuran-2-yl)-[1,2,4]triazolo[4,3-b]pyridazin-6-yl)phenyl)benzamide] was tested. Which IC50 did it give?
**A.** < 10 µM

**Q.** How did the IC50 turn out when `Cc1ccc(-c2nnc3ccc(-c4cccc(NC(=O)c5ccc(F)c(Cl)c5)c4)nn23)o1` [Compound 81, 3-chloro-4-fluoro-N-(3-(3-(5-methylfuran-2-yl)-[1,2,4]triazolo[4,3-b]pyridazin-6-yl)phenyl)benzamide] was run?
**A.** < 10 µM

**Q.** With `Cc1ccc(-c2nnc3ccc(-c4cccc(NC(=O)c5cccc(Cl)c5)c4)nn23)o1` [Compound 82, 3-chloro-N-(3-(3-(5-methylfuran-2-yl)-[1,2,4]triazolo[4,3-b]pyridazin-6-yl)phenyl)benzamide] as the molecule, how does the IC50 read?
**A.** < 10 µM

**Q.** With `Cc1ccc(-c2nnc3ccc(-c4cccc(NC(=O)c5cccc(Br)c5)c4)nn23)o1` [Compound 83] as the molecule, how does the IC50 read?
**A.** < 10 µM

**Q.** Which IC50 does the source give for `Cc1ccc(-c2nnc3ccc(-c4cccc(NC(=O)c5cccc(F)c5)c4)nn23)o1` [Compound 84] here?
**A.** < 10 µM

**Q.** With `Cc1ccc(-c2nnc3ccc(-c4cccc(NC(=O)c5ccc(F)c(F)c5)c4)nn23)o1` [Compound 85] as the molecule, how does the IC50 read?
**A.** < 10 µM

**Q.** Which IC50 does the source give for `CSc1cc(C(=O)Nc2cccc(-c3ccc4nnc(-c5ccc(C)o5)n4n3)c2)ccc1F` [Compound 86] here?
**A.** < 10 µM

**Q.** How did the IC50 turn out when `CCSc1cccc(C(=O)Nc2cccc(-c3ccc4nnc(-c5ccc(C)o5)n4n3)c2)c1` [Compound 87] was run?
**A.** < 10 µM

**Q.** With `Cc1ccc(-c2nnc3ccc(-c4cccc(NC(=O)c5cccc(SC(C)C)c5)c4)nn23)o1` [Compound 88, 3-(isopropylthio)-N-(3-(3-(5-methylfuran-2-yl)-[1,2,4]triazolo[4,3-b]pyridazin-6-yl)phenyl)benzamide] as the molecule, how does the IC50 read?
**A.** < 10 µM

**Q.** `Cc1cccc(C(=O)Nc2cccc(-c3ccc4nnc(-c5ccc(C)o5)n4n3)c2)c1` [Compound 89] was tested. Which IC50 did it give?
**A.** < 10 µM

**Q.** With `CCc1cccc(C(=O)Nc2cccc(-c3ccc4nnc(-c5ccc(C)o5)n4n3)c2)c1` [Compound 90, 3-ethyl-N-(3-(3-(5-methylfuran-2-yl)-[1,2,4]triazolo[4,3-b]pyridazin-6-yl)phenyl)benzamide] as the molecule, how does the IC50 read?
**A.** < 10 µM

**Q.** For `Cc1ccc(-c2nnc3ccc(-c4cccc(NC(=O)c5ccc(F)c(SC(C)C)c5)c4)nn23)o1` [Compound 91], which IC50 is on record?
**A.** < 10 µM

**Q.** For `Cc1ccc(-c2nnc3ccc(-c4cccc(NC(=O)c5ccc(F)c(C)c5)c4)nn23)o1` [Compound 92], which IC50 is on record?
**A.** < 10 µM

**Q.** With `CCc1cc(C(=O)Nc2cccc(-c3ccc4nnc(-c5ccc(C)o5)n4n3)c2)ccc1F` [Compound 93, 3-ethyl-4-fluoro-N-(3-(3-(5-methylfuran-2-yl)-[1,2,4]triazolo[4,3-b]pyridazin-6-yl)phenyl)benzamide] as the molecule, how does the IC50 read?
**A.** < 10 µM

**Q.** For `Cc1ccc(-c2nnc3ccc(-c4cccc(NC(=O)c5ccc(F)c(Br)c5)c4)nn23)o1` [Compound 94], which IC50 is on record?
**A.** < 10 µM

**Q.** Which IC50 does the source give for `COc1cccc(C(=O)Nc2cccc(-c3ccc4nnc(-c5cncs5)n4n3)c2)c1` [Compound 98] here?
**A.** < 10 µM

**Q.** How did the IC50 turn out when `O=C(Nc1cccc(-c2ccc3nnc(-c4cncs4)n3n2)c1)c1ccc(F)cc1` [Compound 99, 4-fluoro-N-(3-(3-(thiazol-5-yl)-[1,2,4]triazolo[4,3-b]pyridazin-6-yl)phenyl)benzamide] was run?
**A.** < 10 µM

**Q.** How did the IC50 turn out when `Cc1ccc(-c2nnc3ccc(-c4cccc(NS(=O)(=O)Cc5ccc(F)cc5F)c4)nn23)o1` [Compound 106] was run?
**A.** < 10 µM

**Q.** `COc1ccc(CS(=O)(=O)Nc2cccc(-c3ccc4nnc(-c5cccnc5)n4n3)c2)cc1` [Compound 107] was tested. Which IC50 did it give?
**A.** < 10 µM

**Q.** Which IC50 does the source give for `COc1ccc(CS(=O)(=O)Nc2cccc(-c3ccc4nnc(-c5cccnc5)n4n3)c2)c(OC)c1` [Compound 108] here?
**A.** < 10 µM

**Q.** How did the IC50 turn out when `Cc1ccc(-c2nnc3ccc(-c4cccc(NC(=O)c5cnco5)c4)nn23)o1` [Compound 109] was run?
**A.** < 10 µM

**Q.** With `Cc1ccc(-c2nnc3ccc(-c4cccc(NC(=O)c5ccc(F)c(CCC(C)C)c5)c4)nn23)o1` [Compound 110] as the molecule, how does the IC50 read?
**A.** < 10 µM

**Q.** How did the IC50 turn out when `Cc1ccc(-c2nnc3ccc(-c4cccc(NC(=O)c5cccc(SC(C)(C)C)c5)c4)nn23)o1` [Compound 111] was run?
**A.** < 10 µM

— patent US20250235453A1, “TRIAZOLOPYRIDAZINE COMPOUNDS USEFUL AS RAC1 INHIBITORS” (Revere Pharmaceuticals, priority 2021, published 2025)
